Laboratory results reported in patent US20170042193A1, “Pet Food Compositions Having Antimicrobial Activity” (priority 2010, published 2017).
Like-named read-outs stand apart in the source and are kept apart here.

Assays:
Assay type in all cases: cell-based
[1] = system: Salmonella (S. aarhus, S. muenster E1 & S. worthington); details: for inhibition of Salmonella, clear zone around the kibbles: coated kibbles, overnight at 30° C.; for Zone of Inhibition-Diameter, Mean / Zone of Inhibition-Diameter, REP I Plate 1 / Zone of Inhibition-Diameter, REP I Plate 2 / Zone of Inhibition-Diameter, REP II Plate 1 / Zone of Inhibition-Diameter, REP II Plate 2 / Zone of Inhibition-Diameter, REP III Plate 1 / Zone of Inhibition-Diameter, REP III Plate 2: kibble coated
Description: The kibble diffusion test has similar principles as the disk diffusion method. […] […] Efficacy of the AMI was validated by measuring how closely the Salmonella cultures grew with respect to the saturated kibbles.
Commercial canine and feline adult pet food compositions in the form of kibbles were coated with potential AMIs. […] After incubation overnight at 30° C., plates were analyzed for presence of clear zones around the kibbles.

[2] = system: Salmonella (S. aarhus, S. muenster E1 and S. worthington); set-up: key to Salmonella growth or inhibition (MIC test): −: negative sign means inhibition; +: positive sign denotes growth
Description: The minimum inhibitory concentration (MIC) of an antimicrobial ingredient is defined as the maximum dilution of the product that will still inhibit the growth of Salmonella. Serial dilutions (0-3%, except for oregano 0-0.3%) were made of the AMI in bacterial growth media and poured in test tubes. The test organisms (S. aarhus, S. muenster E1 and S. worthington) were then added to the dilutions of the AMI ingredients to a final concentration of 10^6 or 10^3 cfu/g, incubated overnight at 30° C., and scored for growth by turbidity or plate counts.
Minimum Inhibitory Concentration was conducted for 10^3 and 10^6 cfu/g Salmonella. Results reported as negative sign means inhibition, while positive sign denotes growth.

Salmonella = test: Scale up challenge testing of canine kibble with Propionic Acid at simulated process steps
From the text: Canine adult pet food compositions with Propionic Acid were produced. Samples were taken to simulate different steps of the process. […] Moisture target was about 20%. 2) The dryer temperature was reduced and belt speed increased. […] Moisture target was about 15%. […] Moisture target was about 8%.
Kibble with intermediate moisture (15% and 20%) was cooled to prevent condensation in the bag and not encourage mold growth.
Extruder, dryer, uncoated base and finished product samples (10 kg each) were inoculated with Salmonella 10^6 cfu/g.
Uncoated base samples were coated with topicals (palatants and fat) after inoculation (Table 10).
Samples were split and incubated in a 30, 50 or 70° C. incubator.
Samples at 70° C. were plated after 0, 15, 30 and 60 minutes.
Samples at 50° C. were plated after 0, 30, 60 and 240 minutes.
Samples at 30° C. were plated after 0, 1, 2, 3, 8 and 15 days.

CCC(=O)O [Propionic Acid]
inhibition of Salmonella, clear zone around the kibbles [1]: inhibited Salmonella | Zone of Inhibition-Diameter, Mean ([1]; 0.65%): 9 mm | Zone of Inhibition-Diameter, REP I Plate 1 ([1]; 0.65%): 8 mm | Zone of Inhibition-Diameter, REP I Plate 2 ([1]; 0.65%): 10 mm | Zone of Inhibition-Diameter, REP II Plate 1 ([1]; 0.65%): 5 mm | Zone of Inhibition-Diameter, REP II Plate 2 ([1]; 0.65%): 10 mm | Zone of Inhibition-Diameter, REP III Plate 1 ([1]; 0.65%): 13 mm | Zone of Inhibition-Diameter, REP III Plate 2 ([1]; 0.65%): 5 mm | Zone of Inhibition-Diameter, Mean ([1]; 2%): 40 mm | Zone of Inhibition-Diameter, REP I Plate 1 ([1]; 2%): 47 mm | Zone of Inhibition-Diameter, REP I Plate 2 ([1]; 2%): 49 mm | Zone of Inhibition-Diameter, REP II Plate 1 ([1]; 2%): 47 mm | Zone of Inhibition-Diameter, REP II Plate 2 ([1]; 2%): 43 mm | Zone of Inhibition-Diameter, REP III Plate 1 ([1]; 2%): 30 mm | Zone of Inhibition-Diameter, REP III Plate 2 ([1]; 2%): 25 mm | Zone of Inhibition-Diameter, Mean ([1]; 3%): 31 mm | Zone of Inhibition-Diameter, REP I Plate 1 ([1]; 3%): 30 mm | Zone of Inhibition-Diameter, REP I Plate 2 ([1]; 3%): 28 mm | Zone of Inhibition-Diameter, REP II Plate 1 ([1]; 3%): 31 mm | Zone of Inhibition-Diameter, REP II Plate 2 ([1]; 3%): 34 mm | Zone of Inhibition-Diameter, REP III Plate 1 ([1]; 3%): 33 mm | Zone of Inhibition-Diameter, REP III Plate 2 ([1]; 3%): 30 mm | Zone of Inhibition-Diameter, Mean ([1]; 3% (in CWG)): 31 mm | Zone of Inhibition-Diameter, REP I Plate 1 ([1]; 3% (in CWG)): 34 mm | Zone of Inhibition-Diameter, REP I Plate 2 ([1]; 3% (in CWG)): 34 mm | Zone of Inhibition-Diameter, REP II Plate 1 ([1]; 3% (in CWG)): 28 mm | Zone of Inhibition-Diameter, REP II Plate 2 ([1]; 3% (in CWG)): 31 mm | Zone of Inhibition-Diameter, REP III Plate 1 ([1]; 3% (in CWG)): 28 mm | Zone of Inhibition-Diameter, REP III Plate 2 ([1]; 3% (in CWG)): 31 mm | Zone of Inhibition-Diameter, Mean ([1]; […]): 21 mm | Zone of Inhibition-Diameter, REP I Plate 1 ([1]; […]): 25 mm | Zone of Inhibition-Diameter, REP I Plate 2 ([1]; […]): 18 mm | Zone of Inhibition-Diameter, REP II Plate 1 ([1]; […]): 25 mm | Zone of Inhibition-Diameter, REP II Plate 2 ([1]; […]): 25 mm | Zone of Inhibition-Diameter, REP III Plate 1 ([1]; […]): 13 mm | Zone of Inhibition-Diameter, REP III Plate 2 ([1]; […]): 20 mm | Salmonella growth or inhibition (MIC test) ([2]; 10^3 cfu/g Salmonella, antimicrobial level 0.03%): + | Salmonella growth or inhibition (MIC test) ([2]; 10^3 cfu/g Salmonella, antimicrobial level 0.15%): + | Salmonella growth or inhibition (MIC test) ([2]; 10^3 cfu/g Salmonella, antimicrobial level 0.3%): + | Salmonella growth or inhibition (MIC test) ([2]; 10^3 cfu/g Salmonella, antimicrobial level 0.9%): − | Salmonella growth or inhibition (MIC test) ([2]; 10^3 cfu/g Salmonella, antimicrobial level 1.5%): − | Salmonella growth or inhibition (MIC test) ([2]; 10^3 cfu/g Salmonella, antimicrobial level 2.1%): − | Salmonella growth or inhibition (MIC test) ([2]; 10^3 cfu/g Salmonella, antimicrobial level 3%): − | Salmonella growth or inhibition (MIC test) ([2]; 10^3 cfu/g Salmonella, antimicrobial level […]): − | Salmonella growth or inhibition (MIC test) ([2]; 10^6 cfu/g Salmonella, antimicrobial level 0.03%): + | Salmonella growth or inhibition (MIC test) ([2]; 10^6 cfu/g Salmonella, antimicrobial level 0.15%): + | Salmonella growth or inhibition (MIC test) ([2]; 10^6 cfu/g Salmonella, antimicrobial level 0.3%): − | Salmonella growth or inhibition (MIC test) ([2]; 10^6 cfu/g Salmonella, antimicrobial level 0.9%): − | Salmonella growth or inhibition (MIC test) ([2]; 10^6 cfu/g Salmonella, antimicrobial level 1.5%): − | Salmonella growth or inhibition (MIC test) ([2]; 10^6 cfu/g Salmonella, antimicrobial level 2.1%): − | Salmonella growth or inhibition (MIC test) ([2]; 10^6 cfu/g Salmonella, antimicrobial level 3%): − | Salmonella growth or inhibition (MIC test) ([2]; 10^6 cfu/g Salmonella, antimicrobial level […]): − | reduction of Salmonella compared with untreated control (Salmonella; 1, 2 and 3% topically applied): reduced Salmonella by two log cycles more than an untreated control | reduction of Salmonella compared with untreated control (Salmonella; 2 and 3% topical/preconditioner): reduced Salmonella by two log cycles more than an untreated control | reduction of Salmonella compared with untreated control (Salmonella; 3% in preconditioner): reduced Salmonella by two log cycles more than an untreated control | efficacy against Salmonella at points of processing (Salmonella; concentrations of 1%, 2%, and 3%): efficacious against Salmonella at all points of processing | effect on Salmonella (Salmonella; finished product contaminated after enrober, 2% and 3% added topical/preconditioner): positive effect | effect on Salmonella (Salmonella; finished product contaminated after enrober, topical application of 1%, 2% and 3%): positive effect | effect on Salmonella (Salmonella; product coated and inoculated (finished product contaminated after enrober), 3% in the preconditioner): some immediate effect | reduction of Salmonella compared with control (Salmonella; product simulating entry to the airlift, evaporative cooling, dryer after surface cooling, 1%, 2%, and 3%): Reduction of two logs more than control

CCC(=O)[O-].CCC(=O)[O-].[Ca+2] [Ca propionate liquid, Ca propionate]
inhibition of Salmonella, clear zone around the kibbles [1]: inhibited Salmonella | Zone of Inhibition-Diameter, Mean ([1]; 1% solution): 9 mm | Zone of Inhibition-Diameter, REP I Plate 1 ([1]; 1% solution): 5 mm | Zone of Inhibition-Diameter, REP I Plate 2 ([1]; 1% solution): 16 mm | Zone of Inhibition-Diameter, REP II Plate 1 ([1]; 1% solution): 4 mm | Zone of Inhibition-Diameter, REP II Plate 2 ([1]; 1% solution): 9 mm | Zone of Inhibition-Diameter, REP III Plate 1 ([1]; 1% solution): 9 mm | Zone of Inhibition-Diameter, REP III Plate 2 ([1]; 1% solution): 9 mm | Zone of Inhibition-Diameter, Mean ([1]; 2% solution): 17 mm | Zone of Inhibition-Diameter, REP I Plate 1 ([1]; 2% solution): 19 mm | Zone of Inhibition-Diameter, REP I Plate 2 ([1]; 2% solution): 14 mm | Zone of Inhibition-Diameter, REP II Plate 1 ([1]; 2% solution): 18 mm | Zone of Inhibition-Diameter, REP II Plate 2 ([1]; 2% solution): 19 mm | Zone of Inhibition-Diameter, REP III Plate 1 ([1]; 2% solution): 16 mm | Zone of Inhibition-Diameter, REP III Plate 2 ([1]; 2% solution): 14 mm | Zone of Inhibition-Diameter, Mean ([1]; 3% solution): 21 mm | Zone of Inhibition-Diameter, REP I Plate 1 ([1]; 3% solution): 20 mm | Zone of Inhibition-Diameter, REP I Plate 2 ([1]; 3% solution): 15 mm | Zone of Inhibition-Diameter, REP II Plate 1 ([1]; 3% solution): 19 mm | Zone of Inhibition-Diameter, REP II Plate 2 ([1]; 3% solution): 25 mm | Zone of Inhibition-Diameter, REP III Plate 1 ([1]; 3% solution): 24 mm | Zone of Inhibition-Diameter, REP III Plate 2 ([1]; 3% solution): 25 mm
